Assay results: patent US11214803B2, “Modulators of YAP1 expression” (Ionis Pharmaceuticals, Inc., priority 2019, dated 2022)
Strand notation (5' to 3'): a small letter for the sugar, then the base; units joined by * are phosphorothioate-linked, units joined directly phosphodiester-linked; [ ] holds rarer units or linkages, { } end groups; capitals alone tell only the bases. k = constrained ethyl (cEt); [5mC] = 5-methylcytosine; d = 2'-deoxy (DNA)

The substances below were run on Yap1 mRNA (assay: Antisense inhibition of human Yap1 in A-431 cells by cEt gapmers, single dose (Example 3, RTS36584)). Conditions: Table 8; A-431 cells, 5,000 cells per well, free uptake, 2,000 nM, approximately 48 hours; RTS36584; normalized to RIBOGREEN; Yap1 mRNA relative to untreated control cells.
Format: cell-based
Summary of the method: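 Read-out is Yap1 mRNA as percent of untreated control, by quantitative RT-PCR normalized to total RNA (RiboGreen). Cells (A-431) received 2,000 nM of 3-10-3 cEt phosphorothioate gapmer via free uptake for roughly 48 hours.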

Row | Substance | YAP1 (% UTC)
1 | 958348 (k[5mC]*kG*kA*dG*dT*d[5mC]*d[5mC]*d[5mC]*d[5mC]*dG*d[5mC]*dG*dG*kA*k[5mC]*kG; antisense) [Compound 958348] | 122 % UTC
2 | 958373 (antisense kA*kG*kG*dT*dG*d[5mC]*dT*dA*dG*d[5mC]*dT*dG*dG*kT*kG*k[5mC]) [Compound 958373] | 8 % UTC
3 | 958402 (antisense k[5mC]*kT*k[5mC]*dT*dT*dA*d[5mC]*dA*d[5mC]*dA*dG*d[5mC]*d[5mC]*kT*kA*kG) [Compound 958402] | 28 % UTC
4 | 958360 (antisense kT*k[5mC]*kG*dA*dA*d[5mC]*dA*dT*dG*d[5mC]*dT*dG*dT*kG*kG*kA) [Compound 958360] | 12 % UTC
5 | 958394 (antisense kT*kT*kG*dA*dA*dA*d[5mC]*d[5mC]*dT*dG*dA*dT*d[5mC]*k[5mC]*kT*kT) [Compound 958394] | 54 % UTC

Same assay, conditions: Table 9; A-431 cells, 5,000 cells per well, free uptake, 2,000 nM, approximately 48 hours; RTS36584; normalized to RIBOGREEN; Yap1 mRNA relative to untreated control cells

Row | Substance | YAP1 (% UTC)
6 | 958661 (kT*kG*k[5mC]*d[5mC]*dG*dT*dT*dG*dG*d[5mC]*d[5mC]*d[5mC]*d[5mC]*kT*k[5mC]*k[5mC]; antisense) [Compound 958661] | 120 % UTC
7 | 958806 (kT*kG*k[5mC]*d[5mC]*dT*dA*dG*dG*dG*dT*dT*d[5mC]*dT*kG*kT*kG; antisense) [Compound 958806] | 30 % UTC
8 | 958656 (kA*k[5mC]*kG*d[5mC]*dA*dA*dT*d[5mC]*dT*dG*dT*dG*dA*kT*k[5mC]*k[5mC]; antisense) [Compound 958656] | 48 % UTC
9 | 958526 (kA*kG*kT*dA*dA*dG*dA*dA*d[5mC]*dA*dA*dT*d[5mC]*kT*kT*kG; antisense) [Compound 958526] | 6 % UTC

Same assay, conditions: Table 10; A-431 cells, 5,000 cells per well, free uptake, 2,000 nM oligonucleotide, approx. 48 hours; primer probe set RTS36584; Yap1 mRNA normalized to RIBOGREEN, percent of untreated control

Row | Substance | YAP1 (% UTC)
10 | 958437 (antisense kA*kG*kG*d[5mC]*dA*d[5mC]*dT*d[5mC]*dG*dG*dA*d[5mC]*d[5mC]*kT*kG*k[5mC]) [Compound 958437] | 84 % UTC
11 | 958677 (kA*kG*kA*dA*d[5mC]*dT*dT*dA*dG*dT*dT*d[5mC]*d[5mC]*k[5mC]*kT*kA; antisense) [Compound 958677] | 51 % UTC
12 | 958537 (k[5mC]*kA*kG*dG*dG*dT*d[5mC]*dA*dA*dT*dT*dT*dT*k[5mC]*kA*kG; antisense) [Compound 958537] | 3 % UTC
13 | 958742 (antisense kA*kG*k[5mC]*dA*dA*dT*dA*dT*dG*dG*dT*dA*dT*kT*kA*kG) [Compound 958742] | 4 % UTC

Same assay, conditions: Table 11; A-431 cells, 5,000 cells per well, free uptake, 2,000 nM oligonucleotide, approx. 48 hours; primer probe set RTS36584; Yap1 mRNA normalized to RIBOGREEN, percent of untreated control

Row | Substance | YAP1 (% UTC)
14 | 958603 (kT*kG*kG*dT*dA*dT*dG*dA*dA*dT*dT*d[5mC]*dT*kG*kA*kA; antisense) [Compound 958603] | 3 % UTC
15 | 958533 (kG*k[5mC]*kA*dT*dA*dG*dA*dA*dG*dT*dA*dG*dG*kA*kG*k[5mC]; antisense) [Compound 958533] | 3 % UTC
16 | 958508 (kG*kA*kG*dA*dG*d[5mC]*dA*dG*dA*dT*dA*dA*dT*k[5mC]*kG*kA; antisense) [Compound 958508] | 7 % UTC
17 | 958543 (kA*k[5mC]*k[5mC]*dT*dT*dA*dT*dA*dG*dT*dA*dT*dT*k[5mC]*kT*kA; antisense) [Compound 958543] | 4 % UTC
18 | 958798 (antisense kT*kG*k[5mC]*dA*dG*dT*dA*dT*dA*dA*dT*dA*dT*k[5mC]*k[5mC]*kT) [Compound 958798] | 3 % UTC
19 | 958658 (kA*k[5mC]*kA*dG*dT*dA*dT*dA*dA*dT*dA*dT*d[5mC]*k[5mC]*kT*kA; antisense) [Compound 958658] | 6 % UTC

Same assay, conditions: Table 12; A-431 cells, 5,000 cells per well, free uptake, 2,000 nM modified oligonucleotide, approx. 48 hours; RTS36584; normalized to RIBOGREEN; Yap1 mRNA relative to untreated control cells

Row | Substance | YAP1 (% UTC)
20 | 958599 (kT*kT*k[5mC]*dA*dA*dG*dA*dA*dT*dA*d[5mC]*d[5mC]*d[5mC]*kA*kG*kT; antisense) [Compound 958599] | 5 % UTC
21 | 958694 (antisense kA*kT*kT*dG*dG*dT*dG*dG*dT*dG*dT*d[5mC]*dT*k[5mC]*kA*k[5mC]) [Compound 958694] | 41 % UTC
22 | 958454 (antisense kG*kG*kA*dA*dT*dG*dA*dG*d[5mC]*dT*d[5mC]*dG*dA*kA*k[5mC]*kA) [Compound 958454] | 3 % UTC

Same assay, conditions: Table 13; A-431 cells, 5,000 cells per well, free uptake, 2,000 nM modified oligonucleotide, approx. 48 hours; RTS36584; normalized to RIBOGREEN; Yap1 mRNA relative to untreated control cells

Row | Substance | YAP1 (% UTC)
23 | 958740 (antisense k[5mC]*kG*kG*d[5mC]*dA*d[5mC]*d[5mC]*dA*dA*dA*d[5mC]*dA*d[5mC]*k[5mC]*k[5mC]*kA) [Compound 958740] | 57 % UTC
24 | 958805 (k[5mC]*kA*kA*dG*dA*dT*dA*dA*dT*d[5mC]*dA*dT*d[5mC]*k[5mC]*kT*k[5mC]; antisense) [Compound 958805] | 6 % UTC
25 | 958760 (antisense kA*kG*kT*dA*dA*dT*dA*dG*dA*dT*d[5mC]*dT*dA*k[5mC]*kA*kA) [Compound 958760] | 76 % UTC

Same assay, conditions: Table 26; Yap1 mRNA by 3-10-3 cEt gapmers targeting SEQ ID NO.: 1, and 2; percent of untreated control

Row | Substance | YAP1 (% UTC)
26 | 1075628 (antisense k[5mC]*k[5mC]*kG*d[5mC]*dA*dA*dA*dA*dT*dA*dT*dT*dA*kA*kT*kT) [compound 1075628] | 118 % UTC
27 | 1075116 (k[5mC]*kT*kT*dA*dA*d[5mC]*dA*dT*dT*dT*dA*dA*dT*kG*kG*k[5mC]; antisense) [compound 1075116] | 15 % UTC

Same assay, conditions: Table 27; Yap1 mRNA by 3-10-3 cEt gapmers targeting SEQ ID NO.: 1, and 2; percent of untreated control

Row | Substance | YAP1 (% UTC)
28 | 1075277 (antisense kT*kT*kA*dT*dA*dA*dG*dA*dA*d[5mC]*dT*dG*dT*kG*kG*k[5mC]) [compound 1075277] | 13 % UTC
29 | 1074733 (kG*k[5mC]*k[5mC]*dA*dG*dG*dT*dA*dT*d[5mC]*dA*d[5mC]*dA*kG*kT*kA; antisense) [compound 1074733] | 47 % UTC
30 | 1076141 (kT*kA*k[5mC]*dG*dA*dA*dA*dA*dA*dA*dG*d[5mC]*d[5mC]*kA*kA*k[5mC]; antisense) [compound 1076141] | 29 % UTC
31 | 1075981 (kA*kA*kG*d[5mC]*dA*dA*dT*dA*dT*d[5mC]*d[5mC]*dT*dA*k[5mC]*kA*k[5mC]; antisense) [compound 1075981] | 40 % UTC

Same assay, conditions: Table 28; Yap1 mRNA as percent of untreated control; 3-10-3 cEt gapmers targeting SEQ ID NO.: 1, and 2

Row | Substance | YAP1 (% UTC)
32 | 1076398 (antisense k[5mC]*kT*kT*dG*dA*dA*dG*dG*dG*d[5mC]*dT*dA*dT*kG*kG*kA) [compound 1076398] | 62 % UTC

Same assay, conditions: Table 29; Yap1 mRNA as percent of untreated control; 3-10-3 cEt gapmers targeting SEQ ID NO.: 1, and 2

Row | Substance | YAP1 (% UTC)
33 | 1075183 (kA*kT*kT*dA*d[5mC]*dT*dA*dA*dG*dA*d[5mC]*dA*dG*kT*kG*kG; antisense) [compound 1075183] | 15 % UTC
34 | 1074511 (kG*kA*kT*dA*d[5mC]*dA*dT*dT*d[5mC]*d[5mC]*dA*d[5mC]*dT*kA*k[5mC]*k[5mC]; antisense) [compound 1074511] | 9 % UTC
35 | 1075343 (antisense kA*kA*k[5mC]*dT*dA*dA*dA*dA*dG*dG*dG*dA*dG*kT*kA*kG) [compound 1075343] | 89 % UTC
36 | 1074287 (antisense kA*k[5mC]*kT*dG*dA*dT*dT*d[5mC]*dT*d[5mC]*dT*dG*dG*kT*kT*k[5mC]) [compound 1074287] | 11 % UTC
37 | 1075023 (antisense kG*kT*kA*dT*dT*dT*dA*d[5mC]*dA*dA*d[5mC]*d[5mC]*dT*kA*kG*kA) [compound 1075023] | 18 % UTC
38 | 1075599 (antisense kA*k[5mC]*k[5mC]*d[5mC]*dT*dA*dT*dA*dG*d[5mC]*dT*dT*dT*kA*kG*kG) [compound 1075599] | 90 % UTC
39 | 1074159 (k[5mC]*kG*kA*dG*d[5mC]*dG*dA*dG*dG*dG*d[5mC]*dT*dA*k[5mC]*kG*k[5mC]; antisense) [compound 1074159] | 77 % UTC

Same assay, conditions: Table 34; Yap1 mRNA as percent of untreated control; 3-10-3 cEt gapmers targeting SEQ ID NO: 1 and 2; single dose

Row | Substance | YAP1 (% UTC)
40 | 1074356 (antisense kG*kA*kG*dG*dG*dA*d[5mC]*dA*d[5mC]*dT*dG*dT*dA*kG*k[5mC]*kT) [compound 1074356] | 43 % UTC
41 | 1075988 (kA*kA*kT*dT*dA*dA*dG*d[5mC]*dT*dT*d[5mC]*dT*d[5mC]*kT*kA*kG; antisense) [compound 1075988] | 90 % UTC
42 | 1075028 (antisense kA*kA*kA*dA*dA*dT*d[5mC]*dA*dA*dG*d[5mC]*d[5mC]*d[5mC]*kT*k[5mC]*kG) [compound 1075028] | 103 % UTC

Same assay, conditions: Table 35; Yap1 mRNA as percent of untreated control; 3-10-3 cEt gapmers targeting SEQ ID NO: 1 and 2; single dose

Row | Substance | YAP1 (% UTC)
43 | 1074997 (antisense kG*k[5mC]*k[5mC]*dG*d[5mC]*dG*dA*dG*dG*dA*dA*dA*dA*kT*kA*kA) [compound 1074997] | 119 % UTC
44 | 1075445 (antisense kT*kA*kT*dA*dA*dA*dT*d[5mC]*d[5mC]*dT*d[5mC]*dA*dT*kG*kT*kG) [compound 1075445] | 84 % UTC
45 | 1075765 (k[5mC]*kT*kT*dA*dA*dG*dG*d[5mC]*dA*dG*d[5mC]*dT*d[5mC]*kT*kA*kT; antisense) [compound 1075765] | 58 % UTC
46 | 1074517 (kA*kA*kT*dG*d[5mC]*dA*dT*dA*d[5mC]*dA*dA*dA*dG*k[5mC]*kG*k[5mC]; antisense) [compound 1074517] | 55 % UTC
